From patent publication US7514422B2, “5HT2c receptor modulators” (Arena Pharmaceuticals, Inc., priority 2002, dated 2009) come the findings set out here.

The structures appear in SMILES notation.

The IC50 is the concentration at which inhibition is half-maximal.

For this assay, the target named is T1, human 5-HT2c receptor (Homo sapiens, UniProt P28335).
T1 construct: expressed in transfected cells; host or cells: HEK293
T1 sequence (P28335 33-458): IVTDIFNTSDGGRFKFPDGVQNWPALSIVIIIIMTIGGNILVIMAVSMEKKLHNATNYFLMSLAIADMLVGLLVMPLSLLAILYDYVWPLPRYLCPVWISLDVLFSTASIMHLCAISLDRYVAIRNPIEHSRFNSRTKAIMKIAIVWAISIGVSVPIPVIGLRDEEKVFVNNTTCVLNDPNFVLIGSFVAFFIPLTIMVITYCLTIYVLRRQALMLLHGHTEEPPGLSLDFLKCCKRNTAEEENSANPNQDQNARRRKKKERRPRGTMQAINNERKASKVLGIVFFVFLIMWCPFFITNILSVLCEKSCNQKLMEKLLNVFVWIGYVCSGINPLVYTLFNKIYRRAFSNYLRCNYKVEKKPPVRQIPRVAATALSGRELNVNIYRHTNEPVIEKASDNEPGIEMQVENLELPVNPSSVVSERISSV
The assay can be described thus: Intracellular IP3 Accumulation Assay. The following applies: HEK293 cells transfected with human 5-HT2c receptor; averages of at least two trials; read-out: 5-HT2C (IC50) IP Accumulation Assay. It is filed as cell-based. Here is the method: HEK293 cells were transfected in 15 cm sterile dishes with or without (control) 16 ug of human 5-HT2c receptor cDNA using 25 ul of lipofectamine. Cells were then incubated for 34 hours at 37° C/5% CO2 and then transfection media was removed and replaced with 100 ul of DMEM. Cells were then plated onto […] sterile dishes. The next day cells were plated into 96 well PDL microtiter plates at a density of 55K/0.2 ml. Six hours latter, media was exchanged with [^3H]inositol (0.25 uCi/well) in inositol free DMEM and plates were incubated at 37° C./5% CO2 overnight. The next day, wells were aspirated and 200 ul of DMEM containing test compound, 10 uM pargyline, and 10 mM LiCl was added to appropriate wells. Plates were then incubated at 37° C./5% CO2 for three hours followed aspiration and by addition of fresh ice cold stop solution (1M KOH, 19 mM Na-borate, 3.8 mM EDTA) to each well. Plates were kept on ice for 5-10 min and the wells were neutralized by addition of 200 ul of fresh ice cold neutralization solution (7.5% HCl). Plates were then frozen until further processing is desired. The lysate was then transferred into 1.5 ml Eppendorf tubes and 1 ml of chloroform/methanol (1:2) was added/tube. The solution was vortexed for 15 seconds and the upper phase was applied to a Biorad AG1-X8™ anion exchange resin (100-200 mesh). First, the resin was washed with water at 1:1.25 W/V and 0.9 ml of upper phase was loaded onto the column. The column was then washed with 10 ml of 5 mM myo-inositol and 10 ml of 5 mM Na-borate/60 mM Na-formate. The inositol tris phosphates were eluted into scintillation vials containing 10 ml of scintillation cocktail with 2 ml of 0.1 M formic acid/1 M ammonium formate. The columns were regenerated by washing with 10 ml of 0.1 M formic acid/3M ammonium formate and rinsed twice with dd H2O and stored at 4° C. in water.
As for `COc1cc2c(cc1Br)C(C)CNCC2` (racemic) [Example 1, (R,S) 8-Bromo-7-methoxy-1-methyl-2,3,4,5-tetrahydro-1H-3-benzazepine], the IC50 is 4.2 nM. For `COc1cc2c(cc1Cl)C(C)CNCC2` (racemic) [Example 2, (R,S) 8-Chloro-7-methoxy-1-methyl-2,3,4,5-tetrahydro-1H-3-benzazepine] the value was 4.5 nM; for `COc1cc2c(cc1I)C(C)CNCC2` (racemic) [Example 3, (R,S) 8-Iodo-7-methoxy-1-methyl-2,3,4,5taetrhydro-1H-3-benzazepine], 1.4 nM.

As for `CC1CNCCc2cc(O)c(Br)cc21` (racemic) [Example 4, (R,S) 8-Bromo-7-hydroxy-1-methyl-2,3,4,5tetrahydro-1H-3-benzazepine], the IC50 came to 2.1 nM. The same measure for `C=CCOc1cc2c(cc1Br)C(C)CNCC2` (racemic) [Example 5, (R,S) 7-Allyloxy-8-bromo-1-methyl-2,3,4,5tetrahydro-1H-3-benzazepine]: 12.1 nM; for `C=CCOc1cc2c(cc1I)C(C)CNCC2` (racemic) [Example 12, (R,S) 7-Allyloxy-8-iodo-1-methyl-2,3,4,5-tetrahydro-1H-3-benzazepine]: 6.3 nM. The same measure for `CCC1CNCCc2cc(OC)c(Br)cc21` (racemic) [Example 19, (R,S) 8-Bromo-1-ethyl-7-methoxy-2,3,4,5-tetrahydro-1H-3-benzazepine]: 18 nM; for `CC1CNCCc2ccc(Br)cc21` (racemic) [Example 32, (R,S) 8-Bromo-1-methyl-2,3,4,5tetrahydro-1H-3-benzazepine]: 2.1 nM.
